ChEMBL document CHEMBL1201862, “PubChem BioAssay data set” (2004)
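Dose response: 5 concentrations. Exposure: 48 h. Format: 96-well plates. Endpoint: linear interpolation; highest concentration if not reached. Abbreviation: GI50, concentration required for 50% inhibition of growth.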 Active and inactive are the calls of the source. Cut-off read from the data, not from the text of the source: active = GI50 up to about 1.1 µM and inactive = higher.

Key:
Experiment in all cases: NCI tumour cell line growth inhibition, 48 h
A498 = system: A498
ACHN = system: ACHN
CCRF-CEM = system: CCRF-CEM
HCT-116 = system: HCT-116
HOP-92 = system: HOP-92
M14 = system: M14
MOLT-4 = system: MOLT-4
NCI-H23 = system: NCI-H23
NCI-H460 = system: NCI-H460
OVCAR-5 = system: OVCAR-5
PC-3 = system: PC-3
RPMI-8226 = system: RPMI-8226
RXF 393 = system: RXF 393
SK-MEL-5 = system: SK-MEL-5
SK-OV-3 = system: SK-OV-3
SNB-19 = system: SNB-19
SNB-75 = system: SNB-75
TK-10 = system: TK-10
U-251 = system: U-251
CAKI-1 = system: CAKI-1

Measured: GI50

O=C(CCCl)NN=C1NCCN1
inactive: A498 > 100 µM | ACHN > 100 µM | CCRF-CEM > 100 µM | HCT-116 > 100 µM | HOP-92 > 100 µM | M14 > 100 µM | MOLT-4 > 100 µM | NCI-H23 > 100 µM | NCI-H460 > 100 µM | OVCAR-5 > 100 µM | PC-3 > 100 µM | RPMI-8226 > 100 µM | RXF 393 > 100 µM | SK-MEL-5 > 100 µM | SK-OV-3 > 100 µM | SNB-19 > 100 µM | SNB-75 > 100 µM | TK-10 > 100 µM | U-251 > 100 µM

CCC(CS(=O)(=O)O)[N+](=O)[O-] (centres undefined)
inactive: A498 > 100 µM | ACHN > 100 µM | CAKI-1 > 100 µM | CCRF-CEM > 100 µM | HCT-116 > 100 µM | M14 > 100 µM | MOLT-4 > 100 µM | NCI-H23 > 100 µM | NCI-H460 > 100 µM | OVCAR-5 > 100 µM | PC-3 > 100 µM | RPMI-8226 > 100 µM | RXF 393 > 100 µM | SK-MEL-5 > 100 µM | SK-OV-3 > 100 µM | SNB-19 > 100 µM | SNB-75 > 100 µM | TK-10 > 100 µM | U-251 > 100 µM

CO[C@]1(c2ccc([N+](=O)[O-])cc2)Oc2ccccc2C(=O)[C@@]1(Nc1ccc(C=O)cc1)OC
inactive: A498 > 10 µM | ACHN > 10 µM | CAKI-1 > 10 µM | CCRF-CEM > 10 µM | HCT-116 > 10 µM | M14 > 10 µM | MOLT-4 > 10 µM | NCI-H23 > 10 µM | NCI-H460 > 10 µM | OVCAR-5 > 10 µM | PC-3 > 10 µM | RPMI-8226 > 10 µM | RXF 393 > 10 µM | SK-MEL-5 > 10 µM | SK-OV-3 > 10 µM | SNB-19 > 10 µM | SNB-75 > 10 µM | TK-10 > 10 µM | U-251 > 10 µM

CSc1c(C(=O)Nc2ccc(Cl)cc2)c(N)n(N)c(=O)c1C#N
inactive: A498 36 µM | CAKI-1 34.2 µM | CCRF-CEM 42.4 µM | HCT-116 32.6 µM | M14 51.6 µM | MOLT-4 76.9 µM | NCI-H23 61.5 µM | NCI-H460 > 100 µM | OVCAR-5 58.9 µM | PC-3 79.8 µM | RPMI-8226 57.4 µM | RXF 393 > 100 µM | SK-MEL-5 > 100 µM | SK-OV-3 > 100 µM | SNB-19 > 100 µM | SNB-75 > 100 µM | TK-10 > 100 µM | U-251 > 100 µM

CC1=C(C#N)C(=C(C#N)C#N)OC1(C)Cc1ccccc1 (centres undefined)
inactive: A498 87.7 µM | ACHN 18.5 µM | CAKI-1 24.7 µM | HCT-116 36.7 µM | HOP-92 19.7 µM | M14 30.8 µM | MOLT-4 34.3 µM | NCI-H23 36.7 µM | OVCAR-5 61.1 µM | PC-3 36.2 µM | RPMI-8226 42.7 µM | RXF 393 17.6 µM | SK-MEL-5 67.8 µM | SK-OV-3 > 100 µM | SNB-19 > 100 µM | SNB-75 > 100 µM | TK-10 36.4 µM | U-251 > 100 µM

O=c1c2cc([N+](=O)[O-])ccc2[nH]n1Cc1ccccc1Cl
inactive: A498 33.3 µM | ACHN 46.1 µM | CAKI-1 > 100 µM | CCRF-CEM 85.5 µM | HCT-116 55.7 µM | HOP-92 27.8 µM | M14 86.1 µM | MOLT-4 74 µM | NCI-H23 59.6 µM | NCI-H460 31 µM | OVCAR-5 > 100 µM | PC-3 93.8 µM | RPMI-8226 30.1 µM | RXF 393 35.2 µM | SK-MEL-5 34.7 µM | SNB-19 > 100 µM | SNB-75 > 100 µM | TK-10 18.2 µM | U-251 75.5 µM

CCOC(=O)NN(C(=O)OCC)c1ccc(/N=N/c2ccc(OC)cc2)n1C
inactive: A498 25.3 µM | ACHN 23.6 µM | HCT-116 18.6 µM | HOP-92 24.8 µM | M14 22.8 µM | MOLT-4 43.7 µM | NCI-H23 32.6 µM | OVCAR-5 32.7 µM | PC-3 15.3 µM | RPMI-8226 19.9 µM | RXF 393 32.4 µM | SK-MEL-5 17.5 µM | SK-OV-3 30.7 µM | SNB-75 10.3 µM | TK-10 44.2 µM | U-251 29.9 µM

Clc1cc(OCC23CC4CC(CC(C4)C2)C3)nc(OCC23CC4CC(CC(C4)C2)C3)n1
inactive: A498 > 100 µM | ACHN > 100 µM | CAKI-1 > 100 µM | CCRF-CEM > 100 µM | HCT-116 > 100 µM | M14 > 100 µM | MOLT-4 > 100 µM | NCI-H23 > 100 µM | NCI-H460 > 100 µM | OVCAR-5 > 100 µM | PC-3 > 100 µM | RPMI-8226 > 100 µM | RXF 393 > 100 µM | SK-MEL-5 > 100 µM | SK-OV-3 > 100 µM | SNB-19 > 100 µM | SNB-75 > 100 µM | TK-10 > 100 µM | U-251 > 100 µM

CCCCCC[C@H]([C@H](C)O)n1cnc2c(N)ncnc21
inactive: ACHN 61.5 µM | CAKI-1 > 100 µM | CCRF-CEM > 100 µM | HCT-116 > 100 µM | HOP-92 > 100 µM | M14 > 100 µM | MOLT-4 > 100 µM | NCI-H23 > 100 µM | NCI-H460 > 100 µM | OVCAR-5 > 100 µM | PC-3 > 100 µM | RPMI-8226 > 100 µM | RXF 393 > 100 µM | SK-MEL-5 > 100 µM | SK-OV-3 > 100 µM | SNB-19 > 100 µM | SNB-75 62.7 µM | TK-10 > 100 µM | U-251 > 100 µM

COC(=O)[C@@]1(NC(=O)C(CC(=O)OC(C)(C)C)NC(=O)OC(C)(C)C)C[C@H]1C (some centres undefined)
inactive: A498 > 100 µM | ACHN > 100 µM | CAKI-1 > 100 µM | CCRF-CEM > 100 µM | HCT-116 > 100 µM | M14 > 100 µM | MOLT-4 > 100 µM | NCI-H23 > 100 µM | NCI-H460 > 100 µM | OVCAR-5 > 100 µM | PC-3 > 100 µM | RPMI-8226 > 100 µM | RXF 393 > 100 µM | SK-MEL-5 > 100 µM | SK-OV-3 > 100 µM | SNB-19 > 100 µM | SNB-75 > 100 µM | TK-10 > 100 µM | U-251 > 100 µM

COC(=O)c1ccc(C)cc1C1CN=NC12Cc1cccc(C)c1C2=O (centres undefined)
inactive: ACHN 38.3 µM | CAKI-1 67.6 µM | CCRF-CEM 31.6 µM | HCT-116 42.3 µM | HOP-92 36.9 µM | M14 19.6 µM | MOLT-4 19.6 µM | NCI-H23 64.9 µM | NCI-H460 63 µM | OVCAR-5 > 100 µM | PC-3 22.5 µM | RPMI-8226 20.8 µM | RXF 393 > 100 µM | SK-MEL-5 22.2 µM | SK-OV-3 90.4 µM | SNB-19 > 100 µM | SNB-75 34.2 µM | TK-10 > 100 µM | U-251 79.1 µM
